Measured values: patent US20240083872A1, “CYCLIC AMINE DERIVATIVES HAVING SEROTONIN RECEPTOR BINDING ACTIVITY” (Shionogi & Co., Ltd., priority 2020, published 2024)
Like-named read-outs stand apart in the source and are kept apart here.

Experiments:
[1] = target: human recombinant 5-HT2C receptor (Homo sapiens (Human), UniProt P28335); test: 5-HT2C receptor binding inhibition test ([3H]-Mesulergine); conditions: Jump-In HEK cell membrane, [3H]-Mesulergine
Experimental: (§1) (Each Experimental Condition)
Cell membrane: Jump-In HEK cell membrane (expressing human recombinant 5-HT2C receptor)
(§2) Assay buffer: Tris-HCl 50 mmol/L (pH 7.4) containing NaCl 120 mmol/L, MgCl2.6H2O 1 mmol/L, KCl 5 mmol/L, 0.1% BSA, and CaCl2 2 mmol/L
Radioactive ligand: [^3H]-Mesulergine around Kd value calculated by the following method
(§3) Non-specific ligand: Serotonin HCl
The Kd value was calculated when the lot of cell membrane was changed. In advance, 0.5 μL of a 1 mmol/L compound for non-specific binding calculation dissolved in DMSO or DMSO was dispensed into a microplate, and the cell membrane was diluted with an Assay buffer. The radioactive ligand solution was serially diluted and the count was confirmed with a liquid scintillator. Assay buffer containing diluted cell membrane was dispensed into a microplate at 50 μL/well. Then, the radioactive ligand solution was dispensed into a microplate at 50 μL/well, and the plate was sealed. It was allowed to stand at room temperature (25° C.) for 1.5 hours. During this period, 50 mmol/L Tris-HCl (pH 7.4) was dispensed into a GF/B UniFilter plate at 50 μL/well and allowed to stand at […] for 1 hour or longer. After that, filtration was performed with Cell harvester (PerkinElmer). The radioactive ligand solution was dispensed into an empty well of the GF/B UniFilter plate at 10 μL/well. After the GF/B UniFilter plate was dried at room temperature, MicroScinti 20 was dispensed into the GF/B UniFilter plate at 50 μL/well, and the plate was sealed. The GF/B UniFilter plate was allowed to stand overnight at room temperature. […] The Saturation curve was drawn from the measured value, and the Kd value was calculated from the slope of the Scatchard Plot.
(§4) (Binding Test of the Compound According to the Present Invention)
In advance, 0.5 μL of the compound solution dissolved in DMSO was dispensed into a microplate, and the cell membrane and the hot ligand were diluted with Assay buffer, respectively. Then, the Assay buffer containing the diluted cell membrane was dispensed into a microplate at 50 μL/well. Then, the radioactive ligand solution was dispensed into a microplate at 50 μL/well, and the plate was sealed. Then, it was allowed to stand at 37° C. for 2 hours. During this period, 50 mmol/L Tris-HCl (pH 7.4) was dispensed into a GF/B UniFilter plate at 50 μL/well and allowed to stand at 4° C. for 1 hour or longer. After that, filtration was performed with Cell harvester (PerkinElmer). After the GF/B UniFilter plate was dried at room temperature, MicroScinti 20 was dispensed into the GF/B UniFilter plate at 50 μL/well, and the plate was sealed. The GF/B UniFilter plate was allowed to stand overnight at room temperature. […] The non-specific binding was calculated from the radioactivity of [^3H]-Mesulergine in the presence of […] Serotonin HCl with the unlabeled ligand, and the total binding was calculated from the radioactivity of [^3H]-Mesulergine in the absence of the compound according to the present invention (Vehicle). Finally, the Ki value was calculated from the dose-response curve.
(§5) (The binding activity of the compound according to the present invention was calculated from the following binding inhibition rate (%).)
(§6) Inhibition rate (%)=[1−(c−a)/(b−a)]×100 • a; mean cpm of non-specific binding • b; mean cpm of total binding • c; cpm in the presence of the test compound

[2] = target: human recombinant 5-HT2A receptor (Homo sapiens (Human), UniProt P28223); test: 5-HT2A receptor binding inhibition test ([3H]-Ketanserin); conditions: Jump-In HEK cell membrane
Sequence of human recombinant 5-HT2A receptor (P28223 whole entry): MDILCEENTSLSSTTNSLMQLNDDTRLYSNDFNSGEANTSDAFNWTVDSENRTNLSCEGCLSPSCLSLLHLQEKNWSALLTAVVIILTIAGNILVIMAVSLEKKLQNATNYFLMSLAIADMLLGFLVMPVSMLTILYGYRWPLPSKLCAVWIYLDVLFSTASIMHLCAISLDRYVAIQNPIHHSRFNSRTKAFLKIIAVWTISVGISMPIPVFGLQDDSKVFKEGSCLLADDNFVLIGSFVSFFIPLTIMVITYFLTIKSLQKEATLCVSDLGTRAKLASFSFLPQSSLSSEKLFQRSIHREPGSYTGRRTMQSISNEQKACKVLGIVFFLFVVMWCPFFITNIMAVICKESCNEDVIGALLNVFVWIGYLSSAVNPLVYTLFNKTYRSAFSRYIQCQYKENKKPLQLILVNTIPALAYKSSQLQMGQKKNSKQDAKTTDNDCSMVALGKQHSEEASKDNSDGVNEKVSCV
Experimental: Test Example 1: 5-HT2A Receptor Binding Inhibition Test
as §1
Cell membrane: Jump-In HEK cell membrane (expressing human recombinant 5-HT2A receptor)
as §2
Radioactive ligand: [^3H]-Ketanserin around Kd value calculated by the following method
as §3
The Kd value was calculated when the lot of cell membrane was changed. In advance, 0.5 μL of a 1 mmol/L compound for non-specific binding calculation dissolved in DMSO or DMSO was dispensed into a microplate, and the cell membrane was diluted with an Assay buffer. The radioactive ligand solution was serially diluted and the count was confirmed with a liquid scintillator. Assay buffer containing diluted cell membrane was dispensed into a microplate at 50 μL/well. Then, the radioactive ligand solution was dispensed into a microplate at 50 μL/well, and the plate was sealed. It was allowed to stand at room temperature (25° C.) for 1.5 hours. During this period, 50 mmol/L Tris-HCl (pH 7.4) was dispensed into a GF/B UniFilter plate at 50 μL/well and allowed to stand at 4° C. for 1 hour or longer. After that, filtration was performed with Cell harvester (PerkinElmer). The radioactive ligand solution was dispensed into an empty well of the GF/B UniFilter plate at 10 μL/well. After the GF/B UniFilter plate was dried at room temperature, MicroScinti 20 was dispensed into the GF/B UniFilter plate at 50 μL/well, and the plate was sealed. The GF/B UniFilter plate was allowed to stand overnight at room temperature. The radioactivity of [^3H]-Ketanserin bound to the 5-HT2A receptor was measured using Microbeta2 (PerkinElmer) at a measurement time of 1 min/well. The Saturation curve was drawn from the measured value, and the Kd value was calculated from the slope of the Scatchard Plot.
as §4
In advance, 0.5 μL of the compound solution dissolved in DMSO was dispensed into a microplate, and the cell membrane and the hot ligand were diluted with Assay buffer, respectively. Then, the Assay buffer containing the diluted cell membrane was dispensed into a microplate at 50 μL/well. Then, the radioactive ligand solution was dispensed into a microplate at 50 μL/well, and the plate was sealed. Then, it was allowed to stand at room temperature (25° C.) for 1.5 hours. During this period, 50 mmol/L Tris-HCl (pH 7.4) was dispensed into a GF/B UniFilter plate at 50 μL/well and allowed to stand at 4° C. for 1 hour or longer. After that, filtration was performed with Cell harvester (PerkinElmer). After the GF/B UniFilter plate was dried at room temperature, MicroScinti 20 was dispensed into the GF/B UniFilter plate at 50 μL/well, and the plate was sealed. The GF/B UniFilter plate was allowed to stand overnight at room temperature. The radioactivity of [^3H]-Ketanserin bound to the 5-HT2A receptor was measured using Microbeta2 (PerkinElmer) at a measurement time of 1 min/well. The non-specific binding was calculated from the radioactivity of [^3H]-Ketanserin in the presence of […] Serotonin HCl with the unlabeled ligand, and the total binding was calculated from the radioactivity of [^3H]-Ketanserin in the absence of the compound according to the present invention (Vehicle). Finally, the Ki value was calculated from the dose-response curve.
as §5, §6

[3] = read-out: human serotonin 5-HT2C receptor binding inhibitory activity, Ki value
[4] = read-out: human serotonin 5-HT2A receptor binding activity, Ki value

Sequence of human recombinant 5-HT2C receptor (P28335 33-458): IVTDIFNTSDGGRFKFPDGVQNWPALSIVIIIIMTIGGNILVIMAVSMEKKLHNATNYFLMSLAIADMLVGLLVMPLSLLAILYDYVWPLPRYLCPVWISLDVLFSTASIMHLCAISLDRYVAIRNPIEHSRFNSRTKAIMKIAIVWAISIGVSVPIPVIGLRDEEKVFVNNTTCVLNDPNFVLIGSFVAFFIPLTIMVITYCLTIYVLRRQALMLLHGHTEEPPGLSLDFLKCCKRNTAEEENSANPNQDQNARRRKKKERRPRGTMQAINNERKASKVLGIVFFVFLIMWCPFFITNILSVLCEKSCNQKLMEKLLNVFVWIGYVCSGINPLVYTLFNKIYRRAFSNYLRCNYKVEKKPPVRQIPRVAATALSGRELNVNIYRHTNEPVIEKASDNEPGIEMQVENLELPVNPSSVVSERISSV

Row | Compound | Ki [1, 3] [nM] | Ki [2, 4] [nM] | Ki ([1]; read-out: h-5-HT2C Ki) [nM] | Ki ([2]; read-out: h-5-HT2A Ki) [nM]
1 | CC(C)COc1ccc(CN(Cc2ccn(C)n2)C(=O)NC2CCCN(C)CC2)cc1 (racemic) [Compound I-004] | 11.5 | 4.51 |  | 
2 | CC(C)COc1ccc(CN(Cc2ccn(C)n2)C(=O)N[C@@H]2CCNC[C@H]2F)cc1 (racemic) [Compound I-018] |  |  | 10 to 100 | 10 to 100
3 | CC(C)COc1ccc(CN(Cc2ccc(F)cn2)C(=O)NC2CCN(C)CC23CC3)cc1 (racemic) [Compound I-044] |  |  | < 10 | < 10
4 | CC(C)COc1ccc(CN(Cc2ccn(C)n2)C(=O)NC2CCN(C)CC23CC3)cc1 (racemic) [Compound I-045] |  |  | < 10 | < 10
5 | CC(C)COc1ccc(CN(Cc2ccn(C)n2)C(=O)NC2CCN(C)C2)cc1 (racemic) [Compound I-054] |  |  |  | < 10
6 | CC(C)COc1ccc(CN(Cc2ccn(C)n2)C(=O)NC2CCN(C)C3(CCC3)C2)cc1 (racemic) [Compound I-067] |  |  | < 10 | < 10
7 | CCCCOc1ccc(CN(Cc2coc(C)n2)C(=O)C(F)C2CCN(C)CC2)cc1F (racemic) [Compound I-124] |  |  | < 10 | < 10
8 | CC(C)COc1ccc(CN(Cc2ccc(F)cn2)C(=O)N[C@H]2CCNC[C@H]2F)cc1 (single isomer, unassigned) [Compound I-006] | 2.47 | 0.968 |  | 
9 | CC(C)COc1ccc(CN(Cc2ccc(F)cn2)C(=O)N[C@@H]2CCNC[C@@H]2F)cc1 (single isomer, unassigned) [Compound I-022] |  |  | 10 to 100 | 10 to 100
10 | CC(C)COc1ccc(CN(Cc2ccn(C)n2)C(=O)NC2C3CCC2CN(C)C3)cc1 (single isomer, unassigned) [Compound I-075] |  |  | 10 to 100 | 10 to 100
11 | CC(C)COc1ccc(CN(Cc2ccsc2)C(=O)NC2CCN(C)CC2)cc1 [Compound I-002] |  |  | 10 to 100 | < 10
12 | CN1CCC(NC(=O)N(Cc2ccc(Oc3ccccc3)cc2)Cc2ccn(C)n2)CC1 [Compound I-003] | 8.39 | 9.93 |  | 
13 | Cc1cc(CN(Cc2ccc(OCC(C)C)cc2)C(=O)NC2CCN(C)CC2)nn1C [Compound I-005] |  |  | 10 to 100 | < 10
14 | CC(C)COc1ccc(CN(Cc2ccccn2)C(=O)NC2CCN(C)CC2)cc1 [Compound I-007] |  |  | 10 to 100 | < 10
15 | Cc1ccc(CN(Cc2ccc(OCC(C)C)cc2)C(=O)NC2CCN(C)CC2)s1 [Compound I-008] |  |  | < 10 | < 10
16 | CC(C)COc1ccc(CN(Cc2cccn2C)C(=O)NC2CCN(C)CC2)cc1 [Compound I-009] |  |  | 100 to 5000 | < 10
17 | COc1ccc(CN(Cc2ccn(C)n2)C(=O)NC2CCN(C)CC2)cc1C [Compound I-010] |  |  | 100 to 5000 | 10 to 100

Row | Compound | Ki [1, 3] [nM] | Ki [2, 4] [nM] | Ki ([1]; read-out: h-5-HT2C Ki) [nM] | Ki ([2]; read-out: h-5-HT2A Ki) [nM]
18 | CN1CCC(NC(=O)N(Cc2ccc(OCCO)cc2)Cc2ccn(C)n2)CC1 [Compound I-011] |  |  | 100 to 5000 | 100 to 5000
19 | CC(C)COc1ccc(CN(Cc2ccn(C)n2)C(=O)CC2CCN(C)CC2)cc1 [Compound I-012] | 33 | 6.02 |  | 
20 | COc1ccc(CN(Cc2ccn(C)n2)C(=O)NC2CCN(C)CC2)c(F)c1 [Compound I-013] |  |  | 10 to 100 | 10 to 100
21 | COc1ccc(CN(Cc2ccn(C)n2)C(=O)NC2CCN(C)CC2)cc1F [Compound I-014] |  |  | 10 to 100 | < 10
22 | CN1CCC(NC(=O)N(Cc2ccc3c(c2)CCO3)Cc2ccn(C)n2)CC1 [Compound I-015] |  | 45.5 |  | 
23 | CC(C)COc1ccc(CN(Cc2ccc(F)cn2)C(=O)NC2CCNCC2)cc1 [Compound I-017] |  |  | < 10 | < 10
24 | CC(C)COc1ccc(CN(Cc2ccncc2)C(=O)NC2CCN(C)CC2)cc1 [Compound I-052] |  |  |  | 10 to 100
25 | CC(C)COc1ccc(CN(Cc2ccnn2C)C(=O)NC2CCN(C)CC2)cc1 [Compound I-053] |  |  |  | 100 to 5000
26 | CC(C)COc1ccc(CN(Cc2cc(-c3ccccc3)n(C)n2)C(=O)NC2CCN(C)CC2)cc1 [Compound I-055] |  |  |  | 10 to 100
27 | CC(C)COc1ccc(CN(Cc2cc(C(F)(F)F)ccn2)C(=O)NC2CCN(C)CC2)cc1 [Compound I-056] |  |  |  | 10 to 100
28 | CC(C)COc1ccc(CN(Cc2cccnc2)C(=O)NC2CCN(C)CC2)cc1 [Compound I-057] |  |  |  | 100 to 5000
29 | CC(C)COc1ccc(CN(Cc2ccn(C)n2)C(=O)N[C@@H]2C[C@H]3CC[C@@H](C2)N3C)cc1 [Compound I-062] |  |  |  | 10 to 100
30 | CC(C)COc1ccc(CN(Cc2ccn(C)n2)C(=O)NC2CCN(C3COC3)CC2)cc1 [Compound I-071] |  |  |  | 100 to 5000
31 | CNC(=O)CN1CCC(NC(=O)N(Cc2ccc(OCC(C)C)cc2)Cc2ccn(C)n2)CC1 [Compound I-072] |  |  |  | 100 to 5000
32 | CC(C)COc1ccc(CN(Cc2ccn(C)n2)C(=O)N[C@H]2C[C@H]3CCC[C@@H](C2)N3C)cc1 [Compound I-073] |  |  |  | 100 to 5000
33 | CC(C)COc1ccc(CN(Cc2ccn(C)n2)C(=O)N[C@@H]2C[C@H]3CCC[C@@H](C2)N3C)cc1 [Compound I-074] |  |  |  | < 10
